From patent US7452884B2, “Methods for inhibiting angiogenesis” (Fox Chase Cancer Center, priority 2001, dated 2008)
Like-named read-outs stand apart in the source and are kept apart here.

How the values were obtained:
[1] = system: SVR angiosarcoma xenografts
[2] = system: PAEC-VEGF-Matrigel implants; conditions: 250 mg/kg/dose p.o. QD for 6 days, nude mice, p<0.05
[3] = system: human umbilical vein endothelial cells (HUVECs); assay: Capillary tube formation by HUVECs on Matrigel in vitro; conditions: for inhibition of complete capillary tube formation relative to vehicle-treated control cultures: 18 h incubation
[4] = system: rat aortic ring explant cultures; conditions: for inhibition of microvessel growth: day 8; for inhibition of microvessel growth relative to vehicle-treated control cultures: day 8 (peak of microvessel growth), serum-free EBM

Structure (SMILES)	morbidity or mortality of treated mice ([1]; 250 mg/kg/dose p.o. QD for 10 days)	inhibition of tumor growth ([1]; 250 mg/kg/dose p.o. QD, as early as day 4 of dosing, p<0.005)	maximum inhibition of tumor volume relative to TW:PG vehicle-treated mice ([1]; 250 mg/kg/dose p.o. QD, day 10 of dosing, p<0.001) [%]	reduction in neovascularization (hemoglobin content) relative to TW:PG vehicle-treated control mice [2] [%]	inhibition of complete capillary tube formation relative to vehicle-treated control cultures ([3]; 4 μM) [%]	inhibition of complete capillary tube formation relative to vehicle-treated control cultures ([3]; 40 μM, p<0.05) [%]	inhibition of complete capillary tube formation relative to vehicle-treated control cultures ([3]; 100 μM, p<0.05) [%]	cytotoxicity to human endothelial cells in culture ([3]; 4, 40 and 100 μM)	inhibition of microvessel growth ([4]; 0.4 μM)	inhibition of microvessel growth ([4]; 4 μM)	inhibition of microvessel growth relative to vehicle-treated control cultures ([4]; 40 μM, p<0.05) [%]	inhibition of microvessel growth relative to vehicle-treated control cultures ([4]; 100 μM, p<0.01) [%]	maximum reduction in SVR tumor volume relative to vehicle-treated control mice ([1]; 30 mg/kg/dose s.c. Q2D×3, by day 10) [%]
Cc1c(-c2cnccn2)ssc1=S [Oltipraz, 5-(2-pyrazinyl)-4-methyl-1,2-dithiol-3-thione]	absence of apparent morbidity or mortality	significant inhibition of tumor growth	81	42	23	62	52	absence of cytotoxicity	not inhibitory	not inhibitory	50	95	
CO[C@@H]1[C@H](OC(=O)NC(=O)CCl)CC[C@]2(CO2)[C@H]1[C@@]1(C)O[C@@H]1CC=C(C)C [TNP470]													80
